ChEMBL document CHEMBL3885861, “Open TG-GATES”

Species: Rattus norvegicus
Assay: Open TG-GATES - Regimen: Daily Repeat
Assay type: toxicity, organism-based, Sprague-Dawley
Design: regimen Daily Repeat, gender Male, age 6 weeks
Conditions: in vivo, po, 0 mg/kg, route gavage, dose level Control; for APTT / Bas / Eos / Fbg / Hb / Ht / Lym / MCHC / MCV / Mono / Neu / PT / Plat / RBC / Ret / WBC: tissue Blood; for KIDNEY_L / KIDNEY_R / KIDNEY_TOTAL: tissue Kidney; for LIVER: tissue Liver; for ALP / ALT / AST / BUN / CRE / Ca / Cl / DBIL / GLC / IP / K / LDH / Na / PL / RALB / TBIL / TC / TG / TP / gamma-GTP: tissue Plasma

## CS(=O)(=O)Nc1ccc([N+](=O)[O-])cc1Oc1ccccc1 [NIMESULIDE]
72 h, time 3 day
  TERMINAL_BW: 220.1 g
  APTT: 17.3 s
  Bas: 0%
  Eos: 1%
  Fbg: 199.4 mg/dL
  Hb: 13.5 g/dL
  Ht: 39.9%
  Lym: 78%
  MCHC: 34%
  MCV: 62.8 fL
  Mono: 6.2%
  Neu: 14.8%
  PT: 11.7 s
  Plat: 127.5 x10_4/uL
  RBC: 635.6 x10_4/ul
  Ret: 9.2%
  WBC: 97.8 x10_2/uL
  KIDNEY_L: 1 g
  KIDNEY_R: 1 g
  KIDNEY_TOTAL: 2 g
  LIVER: 10.6 g
  ALP: 996 IU/L
  ALT: 36.8 IU/L
  AST: 63.6 IU/L
  BUN: 17.6 mg/dL
  CRE: 0.6 mg/dL
  Ca: 10.7 mg/dL
  Cl: 105 meq/L
  DBIL: 0.064 mg/dL
  GLC: 203 mg/dL
  IP: 7.5 mg/dL
  K: 4.7 meq/L
  LDH: 81.6 IU/L
  Na: 139.4 meq/L
  PL: 132.2 mg/dL
  RALB: 4 g/dL
  TBIL: 0.3 mg/dL
  TC: 69 mg/dL
  TG: 72.4 mg/dL
  TP: 5.5 g/dL
  gamma-GTP: 1.4 IU/L
[…], time 7 day
  TERMINAL_BW: 249.3 g
  APTT: 18.3 s
  Bas: 0%
  Eos: 1%
  Fbg: 220 mg/dL
  Hb: 14.2 g/dL
  Ht: 41.6%
  Lym: 77.2%
  MCHC: 34.1%
  MCV: 64.8 fL
  Mono: 9.4%
  Neu: 12.6%
  PT: 11.3 s
  Plat: 117.6 x10_4/uL
  RBC: 642.4 x10_4/ul
  Ret: 7.2%
  WBC: 134.4 x10_2/uL
  KIDNEY_L: 1.1 g
  KIDNEY_R: 1.1 g
  KIDNEY_TOTAL: 2.2 g
  LIVER: 11.6 g
  ALP: 876.4 IU/L
  ALT: 35.4 IU/L
  AST: 64.2 IU/L
  BUN: 19.2 mg/dL
  CRE: 0.6 mg/dL
  Ca: 10.5 mg/dL
  Cl: 105.2 meq/L
  DBIL: 0.03 mg/dL
  GLC: 197.4 mg/dL
  IP: 7 mg/dL
  K: 5 meq/L
  LDH: 91.8 IU/L
  Na: 140.4 meq/L
  PL: 153.8 mg/dL
  RALB: 4 g/dL
  TBIL: 0.3 mg/dL
  TC: 79.2 mg/dL
  TG: 108.6 mg/dL
  TP: 5.7 g/dL
  gamma-GTP: 1.4 IU/L
[…], time 14 day
  TERMINAL_BW: 309.7 g
  APTT: 17.4 s
  Bas: 0%
  Eos: 1.2%
  Fbg: 234.2 mg/dL
  Hb: 14.7 g/dL
  Ht: 43.2%
  Lym: 79%
  MCHC: 34%
  MCV: 62.7 fL
  Mono: 6.2%
  Neu: 13.8%
  PT: 11.8 s
  Plat: 118.2 x10_4/uL
  RBC: 689.8 x10_4/ul
  Ret: 6.7%
  WBC: 118 x10_2/uL
  KIDNEY_L: 1.4 g
  KIDNEY_R: 1.3 g
  KIDNEY_TOTAL: 2.7 g
  LIVER: 14.5 g
  ALP: 898.6 IU/L
  ALT: 28.4 IU/L
  AST: 60 IU/L
  BUN: 17.4 mg/dL
  CRE: 0.5 mg/dL
  Ca: 10.7 mg/dL
  Cl: 106.4 meq/L
  DBIL: 0.002 mg/dL
  GLC: 199.4 mg/dL
  IP: 7.2 mg/dL
  K: 4.7 meq/L
  LDH: 54 IU/L
  Na: 140.6 meq/L
  PL: 141 mg/dL
  RALB: 4 g/dL
  TBIL: 0.3 mg/dL
  TC: 65.4 mg/dL
  TG: 124.4 mg/dL
  TP: 5.9 g/dL
  gamma-GTP: 1 IU/L
[…], time 28 day
  TERMINAL_BW: 405 g
  APTT: 17.4 s
  Bas: 0%
  Eos: 1.4%
  Fbg: 213.8 mg/dL
  Hb: 15.1 g/dL
  Ht: 44.6%
  Lym: 80.6%
  MCHC: 33.9%
  MCV: 58.6 fL
  Mono: 5.8%
  Neu: 12.4%
  PT: 11.7 s
  Plat: 126.5 x10_4/uL
  RBC: 761 x10_4/ul
  Ret: 2.7%
  WBC: 120.2 x10_2/uL
  KIDNEY_L: 1.4 g
  KIDNEY_R: 1.4 g
  KIDNEY_TOTAL: 2.8 g
  LIVER: 16.5 g
  ALP: 627.4 IU/L
  ALT: 29 IU/L
  AST: 61.8 IU/L
  BUN: 20.2 mg/dL
  CRE: 0.6 mg/dL
  Ca: 10.5 mg/dL
  Cl: 108.2 meq/L
  DBIL: 0.006 mg/dL
  GLC: 200 mg/dL
  IP: 6.6 mg/dL
  K: 4.7 meq/L
  LDH: 78 IU/L
  Na: 143.8 meq/L
  PL: 152 mg/dL
  RALB: 4.1 g/dL
  TBIL: 0.3 mg/dL
  TC: 73.2 mg/dL
  TG: 160.4 mg/dL
  TP: 6 g/dL
  gamma-GTP: 1.8 IU/L
